Source: patent US20100179172A1, “N-PHENYL-METHANAMINE DERIVATIVE AND PESTICIDE CONTAINING IT” (priority 2007, published 2010)

Test system: Larval ticks (Haemaphysalis longicornis)
Test: Test on controlling effects against Haemaphysalis longicornis (Petri dish contact, knock down time, Test Example 7)
Format: in vivo
Details: 1 ml in Petri dish, 25° C.
Protocol: On an inner surface of a Petri dish having a diameter of 9 cm, 1 ml of a solution of the compound No. 40 in acetone (concentration: 10 μg/ml, 1 μg/ml or 0.1 μg/ml) was dropped by a micro pipette. After the inner surface of the Petri dish was dried, 100 Larval ticks (Haemaphysalis longicornis) were put, and the Petri dish was covered with a polyethylene sheet and sealed by a rubber band. Thereafter, the Petri dish was left to stand still at a constant temperature of 25° C. under a relative humidity of 100% under a constant dark condition except for the time of observation. Observation was carried out every time upon expiration of a certain time (i.e. after 5, 10, 20, 30, 60, 120, 180 and 240 minutes), and the number of ticks knocked down after contact with the compound was counted. As a control group, Larval ticks were put in a Petri dish having 1 ml of acetone dropwise added and observed in the same manner. The above operation was repeated twice.
From the number of knocked down ticks in each observation, the survival rate was obtained, and a corrected mortality was calculated by the following Abbott correction formula. Then, probit-time linear line was drawn, and the median knock down time (KT50 value) was obtained.
Corrected mortality (%)=[(Survival rate in control group−Survival rate in treated group)/Survival rate in control group]×100

## Cc1ncccc1CN(Cc1ccccn1)c1cc(C(F)(F)F)c(Br)c(C(F)(F)F)c1 [compound 40]
0.1 μg/ml
  KT50 value, Average: 38 min
  KT50 value, First time: 40 min
  KT50 value, Second time: 35 min
1 μg/ml
  KT50 value, Average: 50 min
  KT50 value, First time: 50 min
  KT50 value, Second time: 50 min
10 μg/ml
  KT50 value, Average: 40 min
  KT50 value, First time: 40 min
  KT50 value, Second time: 40 min
